For four compounds, EC50, Activity and IC50 results are on record in ChEMBL document CHEMBL6121045, “Effects of Heparan Sulfate Trisaccharide Containing Oleanolic Acid in Attenuating Hyperphosphorylated Tau-Induced Cell Dysfunction Associated with Alzheimer's Disease” (J Med Chem, 2025).

The term EC50 denotes the concentration needed to bring the measured effect to its halfway point. For orientation: IC50 means the concentration at which inhibition is half-maximal.

Activity calls are given as the source filed them. The calls are words filed in the database; no cut-off is given here.

The test system of assay [1] is SH-SY5Y. Description: Cytoprotective activity against p-tau-induced toxicity in human SH-SY5Y cells assessed as cell viability incubated for 12 hrs by CCK-8 assay. In kind it is functional, cell-based.
In assay [2] the test system is SH-SY5Y. As to the kind of experiment: Cytoprotective activity against p-tau-induced toxicity in human SH-SY5Y cells incubated for 24 hrs by TEM analysis. In kind it is functional, cell-based.
Assay [3] concerns SH-SY5Y. As to the kind of experiment: Cytoprotective activity against p-tau-induced toxicity in human SH-SY5Y cells assessed as reduction in cell viability at 0.3 uM incubated for 12 hrs by CCK-8 assay. Type of assay: functional, cell-based.
In assay [4] the test system is SH-SY5Y. As to the kind of experiment: Cytoprotective activity against p-tau-induced toxicity in human SH-SY5Y cells assessed as cell death at 8 uM incubated for 12 hrs by CCK-8 assay. In kind it is functional, cell-based.
Assay [5] has as its system SH-SY5Y. Description: Protective activity against p-tau induced ER-stress associated apoptosis in human SH-SY5Y cells assessed as reduction in ATF4 mRNA expression by qRT-PCR analysis. In kind it is functional, cell-based. For orientation: Real-time PCR tracks product formation cycle by cycle.
Assay [6] deals with SH-SY5Y. As to the kind of experiment: Protective activity against p-tau induced ER-stress associated apoptosis in human SH-SY5Y cells assessed as reduction in CHOP mRNA expression by qRT-PCR analysis. In kind it is functional, cell-based.
For assay [7], the system named is SH-SY5Y. Description: Protective activity against p-tau induced ER-stress associated apoptosis in human SH-SY5Y cells assessed as reduction in GADD34 mRNA expression by qRT-PCR analysis. Type of assay: functional, cell-based.
Assay [8] deals with SH-SY5Y. As to the kind of experiment: Protective activity against p-tau induced ER-stress associated apoptosis in human SH-SY5Y cells assessed as reduction in TRB3 mRNA expression by qRT-PCR analysis. Type of assay: functional, cell-based.
The subject of assay [9] is SH-SY5Y. As to the kind of experiment: Antiinflammatory activity against p-tau-induced human SH-SY5Y cells assessed as reduction in IL1beta mRNA expression at 5 uM by qRT-PCR analysis. In kind it is functional, cell-based.
Assay [10] deals with SH-SY5Y. Description: Antiinflammatory activity against p-tau-induced human SH-SY5Y cells assessed as reduction in TNFalpha mRNA expression at 5 uM by qRT-PCR analysis. Type of assay: functional, cell-based.
Assay [11] relates to SH-SY5Y. As to the kind of experiment: Antiinflammatory activity against p-tau-induced human SH-SY5Y cells assessed as reduction in IRF3 mRNA expression at 5 uM by qRT-PCR analysis. Type of assay: functional, cell-based.
The subject of assay [12] is SH-SY5Y. As to the kind of experiment: Cytoprotective activity against p-tau-induced toxicity in human SH-SY5Y cells assessed as reduction in cell viability at 8 uM incubated for 12 hrs by CCK-8 assay relative to control. In kind it is functional, cell-based.
Assay [13] concerns SH-SY5Y. As to the kind of experiment: Cytoprotective activity against p-tau-induced toxicity in human SH-SY5Y cells assessed as reduction in cell viability at 8 uM incubated for 12 hrs by CCK-8 assay. In kind it is functional, cell-based.
Assay [14] concerns SH-SY5Y. As to the kind of experiment: Protection against p-tau-induced morphological changes in human SH-SY5Y cells assessed as change in cell density at 5 uM incubated for 24 hrs by contrast microscopic analysis. Type of assay: functional, cell-based.
Assay [15] relates to SH-SY5Y. Description: Protection against p-tau-induced morphological changes in human SH-SY5Y cells assessed as change in cell morphology at 5 uM incubated for 24 hrs by contrast microscopic analysis. In kind it is functional, cell-based.
The target of assay [16] is Microtubule-associated protein tau (Homo sapiens, UniProt P10636). As to the kind of experiment: Inhibition of BLI biosensor-immobilized heparin binding to p-tau hyperphosphorylation (unknown origin) by Biolayer interferometry analysis. A general note: Biolayer interferometry detects binding as a change in optical thickness at a sensor tip.
In a further assay the target is T1, Platelet factor 4 (Homo sapiens, UniProt P02776).
T1 sequence (P02776 whole entry): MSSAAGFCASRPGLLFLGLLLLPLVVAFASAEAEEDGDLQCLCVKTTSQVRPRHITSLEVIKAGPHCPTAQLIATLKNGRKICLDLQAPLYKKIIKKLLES
Description: Binding affinity to human recombinant PF4 by Biolayer interferometry analysis.

Assay [17] deals with SH-SY5Y. As to the kind of experiment: Protective activity against p-tau induced ER-stress in human SH-SY5Y cells assessed as reduction spliced Xbp1 mRNA expression at 5 uM by qRT-PCR analysis. In kind it is functional, cell-based.
Assay [18] deals with SH-SY5Y. Description: Protective activity against p-tau induced ER-stress in human SH-SY5Y cells assessed as reduction Bip mRNA expression at 5 uM by qRT-PCR analysis. Type of assay: functional, cell-based.
Assay [19] deals with SH-SY5Y. Description: Protective activity against p-tau induced ER-stress in human SH-SY5Y cells assessed as reduction ERdj4 mRNA expression at 5 uM by qRT-PCR analysis. In kind it is functional, cell-based.
In assay [20] the test system is SH-SY5Y. Description: Protective activity against p-tau induced UPR response in human SH-SY5Y cells assessed as reduction spliced Xbp1 mRNA expression at 5 uM by qRT-PCR analysis. Type of assay: functional, cell-based.
The subject of assay [21] is SH-SY5Y. As to the kind of experiment: Protective activity against p-tau induced UPR response in human SH-SY5Y cells assessed as reduction Bip mRNA expression at 5 uM by qRT-PCR analysis. In kind it is functional, cell-based.
In assay [22] the test system is SH-SY5Y. As to the kind of experiment: Protective activity against p-tau induced UPR response in human SH-SY5Y cells assessed as reduction ERdj4 mRNA expression at 5 uM by qRT-PCR analysis. In kind it is functional, cell-based.
In assay [23] the test system is SH-SY5Y. As to the kind of experiment: Protective activity against tunicamycin induced ER-stress in human SH-SY5Y cells assessed as reduction Xbp1s mRNA expression at 5 uM incubated for 24 hrs by qRT-PCR analysis. In kind it is functional, cell-based.
Assay [24] relates to SH-SY5Y. As to the kind of experiment: Protective activity against tunicamycin induced ER-stress in human SH-SY5Y cells assessed as reduction P58ipk mRNA expression at 5 uM incubated for 24 hrs by qRT-PCR analysis. In kind it is functional, cell-based.
Assay [25] relates to SH-SY5Y. Description: Protective activity against tunicamycin induced ER-stress in human SH-SY5Y cells assessed as reduction ATF4 mRNA expression at 5 uM incubated for 24 hrs by qRT-PCR analysis. Type of assay: functional, cell-based.
The subject of assay [26] is SH-SY5Y. Description: Protective activity against thapsigargin induced ER-stress in human SH-SY5Y cells assessed as reduction Xbp1s mRNA expression at 5 uM incubated for 24 hrs by qRT-PCR analysis. In kind it is functional, cell-based.
Assay [27] concerns SH-SY5Y. As to the kind of experiment: Protective activity against thapsigargin induced ER-stress in human SH-SY5Y cells assessed as reduction P58ipk mRNA expression at 5 uM incubated for 24 hrs by qRT-PCR analysis. Type of assay: functional, cell-based.
Assay [28] deals with SH-SY5Y. As to the kind of experiment: Protective activity against thapsigargin induced ER-stress in human SH-SY5Y cells assessed as reduction ATF4 mRNA expression at 5 uM incubated for 24 hrs by qRT-PCR analysis. In kind it is functional, cell-based.

Chain of Microtubule-associated protein tau (P10636 whole entry): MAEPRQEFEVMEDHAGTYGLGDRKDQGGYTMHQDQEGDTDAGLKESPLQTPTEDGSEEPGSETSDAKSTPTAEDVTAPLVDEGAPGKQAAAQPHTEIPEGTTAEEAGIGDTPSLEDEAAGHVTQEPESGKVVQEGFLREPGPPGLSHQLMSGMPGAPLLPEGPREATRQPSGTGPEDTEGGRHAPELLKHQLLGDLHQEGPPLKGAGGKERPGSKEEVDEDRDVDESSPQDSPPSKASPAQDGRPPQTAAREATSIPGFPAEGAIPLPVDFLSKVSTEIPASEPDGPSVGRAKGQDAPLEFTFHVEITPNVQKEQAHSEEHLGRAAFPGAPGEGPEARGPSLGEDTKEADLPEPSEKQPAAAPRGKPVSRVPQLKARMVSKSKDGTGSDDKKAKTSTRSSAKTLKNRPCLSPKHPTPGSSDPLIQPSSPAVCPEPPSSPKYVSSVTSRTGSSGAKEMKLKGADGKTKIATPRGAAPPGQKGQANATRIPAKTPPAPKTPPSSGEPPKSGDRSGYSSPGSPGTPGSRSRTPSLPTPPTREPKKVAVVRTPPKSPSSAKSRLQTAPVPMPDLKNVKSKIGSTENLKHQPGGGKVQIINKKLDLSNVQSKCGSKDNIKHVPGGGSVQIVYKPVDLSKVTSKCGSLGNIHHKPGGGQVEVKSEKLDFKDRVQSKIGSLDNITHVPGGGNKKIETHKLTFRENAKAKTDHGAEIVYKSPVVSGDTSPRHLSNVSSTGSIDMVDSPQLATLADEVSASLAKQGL

Consider `CN1CCc2cccc3c2[C@H]1Cc1ccc(O)c(O)c1-3` [APOMORPHINE], for which, in the assay with SH-SY5Y [1], the 50% effective concentration (EC50) amounted to 2.9 µM. Moreover, in the assay with SH-SY5Y [2], the outcome was Active.

Take `O=C(O)[C@H]1O[C@@H](O[C@H]2[C@H](O)[C@@H](NS(=O)(=O)O)[C@H](OCCNS(=O)(=O)O)O[C@@H]2COS(=O)(=O)O)[C@H](O)[C@@H](O)[C@@H]1O[C@H]1O[C@H](COS(=O)(=O)O)[C@@H](O)[C@H](O)[C@H]1NS(=O)(=O)O`: the Activity entry in the assay on SH-SY5Y [3] is listed as “Moderate_effect”. Further, the outcome in the assay on SH-SY5Y [4], in the assay on SH-SY5Y [5], with SH-SY5Y [6], in the assay on SH-SY5Y [7], in the assay with SH-SY5Y [8] and in the assay on SH-SY5Y [9] was inactive. Besides, the outcome with SH-SY5Y [10] and with SH-SY5Y [11] was inactive.

With `COC(=O)[C@]12CCC(C)(C)C[C@H]1C1=CCC3[C@@]4(C)CC[C@H](O)C(C)(C)C4CC[C@@]3(C)C1(C)CC2` (some centres undefined), in the assay on SH-SY5Y [12], the Activity entry was “No effect”.

In the case of `COC(=O)[C@]12CCC(C)(C)C[C@H]1C1=CCC3[C@@]4(C)CC[C@H](O[C@@H]5O[C@H](COS(=O)(=O)O)[C@@H](O[C@@H]6O[C@H](C(=O)O)[C@@H](O[C@H]7O[C@H](COS(=O)(=O)O)[C@@H](O)[C@H](O)[C@H]7NS(=O)(=O)O)[C@H](O)[C@H]6O)[C@H](O)[C@H]5NS(=O)(=O)O)C(C)(C)C4CC[C@@]3(C)C1(C)CC2` (some centres undefined), the result in the assay with SH-SY5Y [13], with SH-SY5Y [14], in the assay with SH-SY5Y [15], in the assay on SH-SY5Y [5], in the assay with SH-SY5Y [6] and in the assay on SH-SY5Y [7] was Active. Further, the outcome in the assay on SH-SY5Y [8], in the assay on SH-SY5Y [17], in the assay with SH-SY5Y [18], in the assay on SH-SY5Y [19], in the assay with SH-SY5Y [20] and with SH-SY5Y [21] was Active. Moreover, the result with SH-SY5Y [22], in the assay on SH-SY5Y [9], with SH-SY5Y [10], in the assay on SH-SY5Y [11] and with SH-SY5Y [2] was Active. The result in the assay on SH-SY5Y [4], in the assay on SH-SY5Y [23], in the assay on SH-SY5Y [24], in the assay on SH-SY5Y [25], with SH-SY5Y [26] and with SH-SY5Y [27] was inactive. In addition, in the assay on SH-SY5Y [28], the outcome was inactive. The EC50 in the assay with SH-SY5Y [1] came to 2.69 µM. For the same compound, the concentration for half-maximal inhibition (IC50) in assay [16] was 28.8 µM; at Platelet factor 4, 21.8 µM.
